Structures can show the parent of a compound that is named as a salt. Where two headings read alike, the source gives them in different places.
Assays:
[1] = test system: Cultured L1210 Leukemia Cells; assay: Inhibition of DNA synthesis in cultured lymphoid leukemia L1210 cells; type: cell-based; conditions: Mus musculus
Method: (§1) Biological testing data for compounds of this invention as the HCl salts, as well as for adriamycin and daunomycin, are presented in the table given below. The compounds were tested first in cultured lymphoid leukemia L1210 cells for inhibition of nucleic acid synthesis by previously reported procedures. The analogs were then tested against lymphocytic leukemia P388 implanted in mice, under the auspices of the NCI and according to its protocols which use the increased survival time of treated mice compared to controls as the measure of antitumor efficacy.
(§2) ^b Assay described in G. Tong, W. W. Lee, D. R. Black and D. W. Henry

[2] = test system: Cultured L1210 Leukemia Cells; assay: Inhibition of RNA synthesis in cultured lymphoid leukemia L1210 cells; type: cell-based; conditions: Mus musculus
Method: as §1, §2

P388 Leukemia in Mice = assay: Antitumor efficacy vs lymphocytic leukemia P388 implanted in mice (NCI protocol); type: in vivo, mice (murine)
Method: as §1
^c Ip P388 murine leukemia treated ip on QD1-9 and Q4D 5, 9, 13
schedules according to standard NCI protocols. Assay described in R. I.
Geran, N. H. Greenberg, M. M. MacDonald, A. M. Schumacker and B. J.
Abbott, Cancer Chemother. Rep., Part 3, 3 (No. 2), 9 (1972), Protocol
1,200. T/C = ratio of survival time of treated mice to that of untreated
controls times 100. Untreated controls survive about 9 days.

[3] = L1210, read-out: Inhibition of Synthesis of DNA, ED50
[4] = L1210, read-out: Inhibition of Synthesis of RNA, Ed50
[5] = Mus musculus, ip P388, treated ip, q4d 5,9,13, optimum dose 8 mg/kg, read-out: Antitumor Efficacy T/C
[6] = Mus musculus, P388, ip, read-out: Antitumor Efficacy T/C
[7] = cultured L1210 leukemia cells, DNA synthesis, read-out: Inhibition of Synthesis of DNA, ED50
[8] = cultured L1210 leukemia cells, RNA synthesis, read-out: Inhibition of Synthesis of RNA, Ed50
[9] = Mus musculus, P388, ip, ip P388, treated ip, qd 1-9, optimum dose 6.25 mg/kg, read-out: Antitumor Efficacy T/C
[10] = Mus musculus, P388, ip, ip P388, treated ip, q4d 5,9,13, optimum dose 25 mg/kg, read-out: Antitumor Efficacy T/C

COc1cccc2c1C(=O)c1c(O)c3c(c(O)c1C2=O)C[C@@](O)(C(=O)CO)C[C@@H]3O[C@H]1C[C@H](N)[C@H](O)[C@H](C)O1 [Adriamycin]
IC50 [1, 3]: 1.5 µM
IC50 [2, 4]: 0.67 µM
response vs control in vivo at 8 mg/kg (P388 Leukemia in Mice; [5]): 157%
response vs control in vivo at 1 mg/kg (P388 Leukemia in Mice; Mus musculus, ip P388, treated ip, qd 1-9, optimum dose 1.0 mg/kg, read-out: Antitumor Efficacy T/C): 195%

COc1cccc2c1C(=O)c1c(O)c3c(c(O)c1C2=O)C[C@@](O)(C(C)=O)C[C@@H]3O[C@H]1C[C@H](N)[C@H](O)[C@H](C)O1 [Daunomycin]
IC50 [1, 3]: 0.49 µM
IC50 [2, 4]: 0.39 µM
response vs control in vivo at 8 mg/kg (P388 Leukemia in Mice; [5]): 134%
response vs control in vivo at 0.5 mg/kg (P388 Leukemia in Mice; Mus musculus, ip P388, treated ip, qd 1-9, optimum dose 0.5 mg/kg, read-out: Antitumor Efficacy T/C): 166%

COc1cccc2c1C(=O)c1c(O)c3c(c(O)c1C2=O)C[C@@](O)(C(C)=NNC(=O)CCC(=O)NN=C(C)[C@]1(O)Cc2c(O)c4c(c(O)c2[C@@H](O[C@H]2C[C@H](N)[C@H](O)[C@H](C)O2)C1)C(=O)c1c(OC)cccc1C4=O)C[C@@H]3O[C@H]1C[C@H](N)[C@H](O)[C@H](C)O1 [I, Bis(daunomycin) Succinylhydrazone Dihydrochloride]
IC50 [1, 3]: 13 µM
IC50 [2, 4]: 3.4 µM
response vs control in vivo at 6.25 mg/kg (P388 Leukemia in Mice; [6]): 283%
response vs control in vivo at 12.5 mg/kg (P388 Leukemia in Mice; [6]): 307%
response vs control in vivo at 20 mg/kg (P388 Leukemia in Mice; [6]): 170%
treated mice survived until sacrifice at 30 days (P388 Leukemia in Mice; qd 1-9, 6.25 mg/kg, sacrifice at 30 days): Three out of six
treated mice survived until sacrifice at 45 days (P388 Leukemia in Mice; qd 1-9, 12.5 mg/kg, sacrifice at 45 days): Two out of six

COc1cccc2c1C(=O)c1c(O)c3c(c(O)c1C2=O)C[C@@](O)(C(C)=NNC(=O)CCCC(=O)NN=C(C)[C@]1(O)Cc2c(O)c4c(c(O)c2[C@@H](O[C@H]2C[C@H](N)[C@H](O)[C@H](C)O2)C1)C(=O)c1c(OC)cccc1C4=O)C[C@@H]3O[C@H]1C[C@H](N)[C@H](O)[C@H](C)O1 [II, Bis(daunomycin) Glutarylhydrazone Dihydrochloride]
IC50 [1, 7]: 4.5 µM
IC50 [2, 8]: 3.6 µM
response vs control in vivo at 1.56 mg/kg (P388 Leukemia in Mice; Mus musculus, P388, ip, ip P388, treated ip, qd 1-9, optimum dose 1.56 mg/kg, read-out: Antitumor Efficacy T/C): 188%
response vs control in vivo at 3.12 mg/kg (P388 Leukemia in Mice; Mus musculus, P388, ip, ip P388, treated ip, qd 1-9, optimum dose 3.12 mg/kg, read-out: Antitumor Efficacy T/C): 149%

COc1cccc2c1C(=O)c1c(O)c3c(c(O)c1C2=O)C[C@@](O)(C(C)=NNC(=O)CCCCC(=O)NN=C(C)[C@]1(O)Cc2c(O)c4c(c(O)c2[C@@H](O[C@H]2C[C@H](N)[C@H](O)[C@H](C)O2)C1)C(=O)c1c(OC)cccc1C4=O)C[C@@H]3O[C@H]1C[C@H](N)[C@H](O)[C@H](C)O1 [III, Bis(daunomycin) Adipylhydrazone Dihydrochloride]
IC50 [1, 7]: 8.9 µM
IC50 [2, 8]: 3.6 µM
response vs control in vivo at 37.5 mg/kg (P388 Leukemia in Mice; Mus musculus, P388, ip, ip P388, treated ip, q4d 5,9,13, optimum dose 37.5 mg/kg, read-out: Antitumor Efficacy T/C): 196%
response vs control in vivo at 6.25 mg/kg (P388 Leukemia in Mice; [9]): 281%

COc1cccc2c1C(=O)c1c(O)c3c(c(O)c1C2=O)C[C@@](O)(C(C)=NNC(=O)CCCCCCC(=O)NN=C(C)[C@]1(O)Cc2c(O)c4c(c(O)c2[C@@H](O[C@H]2C[C@H](N)[C@H](O)[C@H](C)O2)C1)C(=O)c1c(OC)cccc1C4=O)C[C@@H]3O[C@H]1C[C@H](N)[C@H](O)[C@H](C)O1 [IV, Bis(daunomycin) Suberylhydrazone Dihydrochloride]
IC50 [1, 7]: 4.9 µM
IC50 [2, 8]: 2.4 µM
response vs control in vivo at 25 mg/kg (P388 Leukemia in Mice; [10]): 178%
response vs control in vivo at 8 mg/kg (P388 Leukemia in Mice; Mus musculus, P388, ip, ip P388, treated ip, qd 1-9, optimum dose 8 mg/kg, read-out: Antitumor Efficacy T/C): 245%

COc1cccc2c1C(=O)c1c(O)c3c(c(O)c1C2=O)C[C@@](O)(C(C)=NNC(=O)C(=O)NN=C(C)[C@]1(O)Cc2c(O)c4c(c(O)c2[C@@H](O[C@H]2C[C@H](N)[C@H](O)[C@H](C)O2)C1)C(=O)c1c(OC)cccc1C4=O)C[C@@H]3O[C@H]1C[C@H](N)[C@H](O)[C@H](C)O1 [IX, Bis-(Daunomycin) Oxalylhydrazone Dihydrochloride]
IC50 [1, 7]: 4.3 µM
IC50 [2, 8]: 2.3 µM
response vs control in vivo at 25 mg/kg (P388 Leukemia in Mice; [10]): 160%

COc1cccc2c1C(=O)c1c(O)c3c(c(O)c1C2=O)C[C@@](O)(C(C)=NNC(=O)CCCCCCCCC(=O)NN=C(C)[C@]1(O)Cc2c(O)c4c(c(O)c2[C@@H](O[C@H]2C[C@H](N)[C@H](O)[C@H](C)O2)C1)C(=O)c1c(OC)cccc1C4=O)C[C@@H]3O[C@H]1C[C@H](N)[C@H](O)[C@H](C)O1 [V, Bis(Daunomycin) Sebacylhydrazone Dihydrochloride]
IC50 [1, 3]: 10 µM
IC50 [2, 4]: 1 µM
response vs control in vivo at 12.5 mg/kg (P388 Leukemia in Mice; [6]): 221%
response vs control in vivo at 50 mg/kg (P388 Leukemia in Mice; [6]): 163%

COc1cccc2c1C(=O)c1c(O)c3c(c(O)c1C2=O)C[C@@](O)(C(C)=NNC(=O)CCC(=O)NN=C(C)[C@]1(O)Cc2c(O)c4c(c(O)c2[C@@H](O[C@H]2C[C@H](N(C)C)[C@H](O)[C@H](C)O2)C1)C(=O)c1c(OC)cccc1C4=O)C[C@@H]3O[C@H]1C[C@H](N(C)C)[C@H](O)[C@H](C)O1 [VI, Bis(N,N-dimethyldaunomycin) Succinylhydrazone Dihydrochloride]
IC50 [1, 7]: 19 µM
IC50 [2, 8]: 3 µM
response vs control in vivo at 25 mg/kg (P388 Leukemia in Mice; [10]): 158%
response vs control in vivo at 4 mg/kg (P388 Leukemia in Mice; Mus musculus, P388, ip, ip P388, treated ip, qd 1-9, optimum dose 4 mg/kg, read-out: Antitumor Efficacy T/C): 178%

COc1cccc2c1C(=O)c1c(O)c3c(c(O)c1C2=O)C[C@@](O)(C(CO)=NNC(=O)CCC(=O)NN=C(CO)[C@]1(O)Cc2c(O)c4c(c(O)c2[C@@H](O[C@H]2C[C@H](N)[C@H](O)[C@H](C)O2)C1)C(=O)c1c(OC)cccc1C4=O)C[C@@H]3O[C@H]1C[C@H](N)[C@H](O)[C@H](C)O1 [VII, Bis(adriamycin) Succinylhydrazone Dihydrochloride]
IC50 [1, 7]: 13.3 µM
IC50 [2, 8]: 3.1 µM
response vs control in vivo at 18.8 mg/kg (P388 Leukemia in Mice; Mus musculus, P388, ip, ip P388, treated ip, q4d 5,9,13, optimum dose 18.8 mg/kg, read-out: Antitumor Efficacy T/C): 160%
response vs control in vivo at 6.25 mg/kg (P388 Leukemia in Mice; [9]): 309%

COc1cccc2c1C(=O)c1c(O)c3c(c(O)c1C2=O)C[C@@](O)(C(C)=NNC(=O)CC(=O)NN=C(C)[C@]1(O)Cc2c(O)c4c(c(O)c2[C@@H](O[C@H]2C[C@H](N)[C@H](O)[C@H](C)O2)C1)C(=O)c1c(OC)cccc1C4=O)C[C@@H]3O[C@H]1C[C@H](N)[C@H](O)[C@H](C)O1 [VIII, Bis(daunomycin) Malonylhydrazone Dihydrochloride]
IC50 [1, 7]: 14.1 µM
IC50 [2, 8]: 7.4 µM
response vs control in vivo at 6.25 mg/kg (P388 Leukemia in Mice; [9]): 169%
Antitumor Efficacy (in words) (P388 Leukemia in Mice; ip P388, treated ip, q4d 5,9,13, dose not given): inactive

COc1cccc2c1C(=O)c1c(O)c3c(c(O)c1C2=O)C[C@@](O)(C(C)=NNC(=O)CCCCCC(=O)NN=C(C)[C@]1(O)Cc2c(O)c4c(c(O)c2[C@@H](O[C@H]2C[C@H](N)[C@H](O)[C@H](C)O2)C1)C(=O)c1c(OC)cccc1C4=O)C[C@@H]3O[C@H]1C[C@H](N)[C@H](O)[C@H](C)O1 [X, Bis-(daunomycin) Pimelylhydrazone Dihydrochloride]
IC50 [1, 3]: 2 µM
IC50 [2, 4]: 1.3 µM
response vs control in vivo at 25 mg/kg (P388 Leukemia in Mice; [6]): 160%
